In ChEMBL document CHEMBL4673238, “Discovery of 3-(benzofuran-2-ylmethyl)-1H-indole derivatives as potential autophagy inducers in cervical cancer cells” (Bioorg Med Chem Lett, 2020):
Active and inactive are the calls of the source. The calls are words filed in the database; no cut-off is given here.

How the values were obtained:
Assay type in all cases: functional, cell-based
SiHa [1] = assay: Cytotoxicity against human SiHa cells
C-33-A [2] = assay: Cytotoxicity against human C-33-A cells
C-33-A [3] = assay: Induction of autophagy in human C-33-A cells assessed as decrease in p62 expression at 30 uM incubated for 42 hrs by microscopic analysis
SiHa [4] = assay: Induction of autophagy in human SiHa cells assessed as increase in LC3I to LC3II conversion at 30 uM measured upto 42 hrs by microscopic analysis; details: time hrs <=42
SiHa [5] = assay: Induction of autophagy in human SiHa cells assessed as vacuole formation incubated for 24 hrs by microscopic analysis
C-33-A [6] = assay: Induction of autophagy in human C-33-A cells assessed as increase in LC3I to LC3II conversion at 30 uM incubated for 42 hrs by microscopic analysis
SiHa [7] = assay: Induction of autophagy in human SiHa cells assessed as decrease in p62 expression at 30 uM measured upto 42 hrs by microscopic analysis; details: time hrs <=42
SiHa [8] = assay: Induction of autophagy in human SiHa cells assessed as […] in GFP-LC3 level by fluorescence microscopy

SMILES: Cc1c(C(c2ccccc2)c2cc3ccccc3o2)[nH]c2ccccc12 (stereo not given)
- IC50 (SiHa [1]): > 100 µM

SMILES: COc1ccc(C(c2cc3cc(C(C)(C)C)cc(C(C)(C)C)c3o2)c2c[nH]c3ccc([N+](=O)[O-])cc23)cc1 (stereo not given)
- IC50 (SiHa [1]): > 100 µM

SMILES: CC(C)(C)c1cc(C(C)(C)C)c2oc(C(c3ccc(Cl)cc3)c3c[nH]c4ccccc34)cc2c1 (stereo not given)
- IC50 (SiHa [1]): 49.8 µM
- IC50 (C-33-A [2]): 34.2 µM

SMILES: Cc1[nH]c2ccccc2c1C(c1ccccc1)c1cc2cc(Cl)ccc2o1 (stereo not given)
- IC50 (SiHa [1]): 47.5 µM
- IC50 (C-33-A [2]): 38.7 µM

SMILES: Cc1c(C(c2ccccc2)c2cc3cc(C(C)(C)C)cc(C(C)(C)C)c3o2)[nH]c2ccccc12 (stereo not given)
- IC50 (SiHa [1]): > 100 µM

SMILES: COc1ccc2oc(C(c3ccccc3)c3c[nH]c4ccccc34)cc2c1 (stereo not given)
- IC50 (SiHa [1]): > 100 µM

SMILES: O=[N+]([O-])c1ccc2[nH]cc(C(c3ccccc3)c3cc4cc(Cl)ccc4o3)c2c1 (stereo not given)
- IC50 (SiHa [1]): > 100 µM

SMILES: CC(C)(C)c1cc(C(C)(C)C)c2oc(C(c3ccccc3)c3c[nH]c4ccc([N+](=O)[O-])cc34)cc2c1 (stereo not given)
- IC50 (SiHa [1]): 48.2 µM

SMILES: O=[N+]([O-])c1ccc2[nH]cc(C(c3ccccc3)c3cc4ccccc4o3)c2c1 (stereo not given)
- IC50 (SiHa [1]): 40.4 µM
- IC50 (C-33-A [2]): 35.2 µM

SMILES: Cc1[nH]c2ccccc2c1C(c1ccc(Cl)cc1)c1cc2cc(C(C)(C)C)cc(C(C)(C)C)c2o1 (stereo not given)
- Activity (C-33-A [3]): Active
- Activity (SiHa [4]): Active
- Activity (SiHa [5]): Active
- Activity (C-33-A [6]): Active
- Activity (SiHa [7]): Active
- IC50 (SiHa [1]): 35.9 µM
- Activity (SiHa [8]): Active
- IC50 (C-33-A [2]): 31.2 µM

SMILES: COc1ccc2oc(C(c3ccccc3)c3c(C)[nH]c4ccccc34)cc2c1 (stereo not given)
- IC50 (SiHa [1]): > 100 µM

SMILES: Cc1[nH]c2ccccc2c1C(c1ccccc1)c1cc2ccccc2o1 (stereo not given)
- IC50 (SiHa [1]): 56.5 µM

SMILES: Cc1c(C(c2ccccc2)c2cc3cc(Cl)ccc3o2)[nH]c2ccccc12 (stereo not given)
- IC50 (SiHa [1]): 77.9 µM

SMILES: COc1ccc(C(c2cc3ccccc3o2)c2c(C)[nH]c3ccccc23)cc1 (stereo not given)
- IC50 (SiHa [1]): > 100 µM

SMILES: Cc1[nH]c2ccccc2c1C(c1ccccc1)c1cc2cc(C(C)(C)C)cc(C(C)(C)C)c2o1 (stereo not given)
- IC50 (SiHa [1]): 72 µM

SMILES: COc1ccc2oc(C(c3ccccc3)c3[nH]c4ccccc4c3C)cc2c1 (stereo not given)
- IC50 (SiHa [1]): > 100 µM

SMILES: COc1ccc(C(c2cc3ccccc3o2)c2[nH]c3ccccc3c2C)cc1 (stereo not given)
- IC50 (SiHa [1]): > 100 µM

SMILES: COc1ccc(C(c2cc3ccccc3o2)c2c[nH]c3ccccc23)cc1 (stereo not given)
- IC50 (SiHa [1]): > 100 µM

SMILES: Cc1c(C(c2ccc(Cl)cc2)c2cc3ccccc3o2)[nH]c2ccccc12 (stereo not given)
- IC50 (SiHa [1]): 72.5 µM

SMILES: CC(C)(C)c1cc(C(C)(C)C)c2oc(C(c3ccccc3)c3c[nH]c4ccccc34)cc2c1 (stereo not given)
- IC50 (SiHa [1]): 61.6 µM

SMILES: Clc1ccc2oc(C(c3ccccc3)c3c[nH]c4ccccc34)cc2c1 (stereo not given)
- IC50 (SiHa [1]): 58 µM

SMILES: c1ccc(C(c2cc3ccccc3o2)c2c[nH]c3ccccc23)cc1 (stereo not given)
- IC50 (SiHa [1]): 71.1 µM

SMILES: CC(C)(C)c1cc(C(C)(C)C)c2oc(C(c3ccc(Cl)cc3)c3c[nH]c4ccc([N+](=O)[O-])cc34)cc2c1 (stereo not given)
- Activity (C-33-A [3]): Active
- Activity (SiHa [4]): Active
- Activity (SiHa [5]): Active
- Activity (C-33-A [6]): Active
- Activity (SiHa [7]): Active
- IC50 (SiHa [1]): 36.9 µM
- Activity (SiHa [8]): Active
- IC50 (C-33-A [2]): 29.4 µM
